Experimental findings from patent publication US20080139664A1, “ANTI-GLYCATION AGENTS FOR PREVENTING AGE-, DIABETES-, AND SMOKING-RELATED COMPLICATIONS” (NATIONAL RESEARCH COUNCIL OF CANADA, priority 2001, published 2008) are described below.

Where a name gives a salt, the structure may show the parent alone.

The test system of the first series is bovine serum albumin (BSA). In words: Maillard fluorescence-based assay of AGEs formation, IC50 determination (BSA + D-ribose).
Conditions: not given
For D,L-Epinephrine, the IC50 (as a rule, the concentration needed to halve the response being measured) was 15 µM.

The series is the same for the next values; noted with them: Maillard fluorescence; listed if significantly lower than 100%.
As to `NCCc1cc(O)c(O)cc1O` [6-Hydroxydopamine], the “maximum percentage of the inhibition” value turned out to be 65%).

The series is the same for the next values; noted with them: inhibition of Maillard fluorescence development; 0.075 mM BSA, 50 mM D-ribose, 37° C., 5 days.
As for `COC(CNC(C)C)c1ccc(O)c(O)c1` (stereo not drawn) [3,4-Dihydroxy-1-[α-isopropylamino-β-methoxy)ethyl]benzene], the IC50 worked out at 78 µM. Still for that read-out and setting: with `CCOC(=O)[C@@H](N)CS` [L-Cysteine ethyl ester] the figure was > 4000 µM; with `Cc1cc2c(C(C)C)c(O)c(O)c(C=O)c2c(O)c1-c1c(C)cc2c(C(C)C)c(O)c(O)c(C=O)c2c1O` [Gossypol], 110 µM; with `O=[N+]([O-])c1ncc[nH]1` [2-Nitroimidazole], > 4000 µM. As to `C=CCN1CC[C@]23c4c5ccc(O)c4O[C@H]2/C(=N/N=C2\CC[C@@]4(O)[C@H]6Cc7ccc(O)c8c7[C@@]4(CCN6CC=C)[C@H]2O8)CC[C@@]3(O)[C@H]1C5` [Naloxonazine], the IC50 amounted to 1700 µM. Consider Pyrithioxin, for which the IC50 is > 4000 µM. The same measure, in the same setting: with `NC(=O)c1ccc([N+](=O)[O-])cc1Cl` [Aklomide] the figure was 350 µM. `C[C@H](N)[C@H](O)c1ccc(O)c(O)c1` [Corbadrine]: the IC50 is 52 µM. The same measure, in the same setting: with `NC(=O)c1cc([N+](=O)[O-])cc([N+](=O)[O-])c1` [3,5-Dinitrobenzamide] the figure was 780 µM; with `O=C1c2c(O)cc(O)cc2O[C@H](c2ccc(O)c(O)c2)[C@H]1O` [Taxifolin], 100 µM; with `CC(=O)Nc1ncc([N+](=O)[O-])s1` [Aminitrozole], 82 µM. For `O=c1c(O)c(-c2ccc(O)c(O)c2)oc2cc(O)cc(O)c12` [Quercetin], the IC50 is 130 µM.

Take `Nc1ccc(C(=O)O)c(O)c1` [4-Amino-salicylic acid]: the concentration for half-maximal inhibition (IC50) is > 4000 µM. Same read-out and setting: then `O=c1c(O)c(-c2ccc(O)c(O)c2)oc2ccccc12` [3,3′,4′-Trihydroxyflavone], with 1800 µM. Same read-out and setting: then `CC(CCc1ccccc1)NC(CO)c1ccc(O)c(O)c1` (stereo not drawn) [3,4-Dihydroxy-1-[α-(1-methyl-3-phenyl-propylamino)-β-hydroxyethyl]benzene hydrochloride], with 350 µM; and `COc1ccc(O)c(C(C)(C)C)c1` [BHA], with > 4000 µM; and `Cc1c(C)c2c(c(C)c1O)CCC(C)(C(=O)O)O2` (stereo not shown) [Trolox C], with 470 µM. As for `Cc1cc2c(OCC(CNC(C)(C)C)OC(=O)c3ccccc3)cccc2[nH]1` (stereo not shown) [Bopindolol], the IC50 worked out at 170 µM. Still for that read-out and setting: with `COc1ccc(-c2coc3cc(O)cc(O)c3c2=O)cc1` [Biochanin A] the figure was 290 µM. Still for that read-out and setting: then `CC(CCc1ccccc1)NCC(=O)c1ccc(O)c(O)c1` (stereo not drawn) [α-(1-Methyl-3-phenyl-propylamino)-3,4-dihydroxyacetophenone hydrochloride], with 890 µM; and `O=c1c2ccccc2[se]n1-c1ccccc1` [Ebselen], with > 4000 µM; and `O=c1cc(-c2cccc(O)c2)oc2cc(O)c(O)cc12` [6,7,3′-Trihydroxyflavone], with 940 µM. On the same count and under the same terms, then `Cc1cc(-c2ccc(/N=N/c3ccc4c(S(=O)(=O)O)cc(S(=O)(=O)O)c(N)c4c3O)c(C)c2)ccc1/N=N/c1ccc2c(S(=O)(=O)O)cc(S(=O)(=O)O)c(N)c2c1O` [Evans blue], with 3700 µM; and `CN1CC(O)C2=C/C(=N/NC(N)=O)C(=O)C=C21` (stereo not shown) [Carbazochrome], with 3500 µM; and `O=c1c(-c2ccc(O)cc2)coc2cc(O)cc(O)c12` [Genistein], with 450 µM. On to `N[C@@H](Cc1cc(I)c(O)c(I)c1)C(=O)O` [3,5-Diiodo-L-tyrosine], for which the IC50 was determined as 1500 µM.

Regarding `CC[C@@]1(O)C[C@H](O[C@H]2C[C@H](N(C)C)[C@H](O[C@H]3C[C@H](O)[C@H](O[C@H]4CCC(=O)[C@H](C)O4)[C@H](C)O3)[C@H](C)O2)c2c(cc3c(c2O)C(=O)c2c(O)cccc2C3=O)[C@H]1C(=O)OC` [Aclarubicin], the IC50 was found to be 2500 µM. As for `O=[N+]([O-])c1cc(I)c(O)c(I)c1` [2,6-Diiodo-4-nitrophenol], the IC50 was 1300 µM. For `NCCc1cc(O)c(O)cc1O` [6-Hydroxydopamine], the IC50 came out at 95 µM.
